The structures appear in SMILES notation.

`CC(C)c1ccc(S(=O)(=O)n2c(Cc3ccc(C(=O)O)s3)cc3cc(C(F)(F)F)ccc32)cc1` gave a melting point of 199 to 216 °C. In turn, `CC(Oc1ccc(Cl)c(Cl)c1)c1nnc(N)s1` (centres undefined) displayed a melting point of 136 to 138 °C.

In the case of `C=C1CC2C(CCC3(C)C2CCC3(OC)C(=O)COC(C)=O)C2(C)CCC(=O)C=C12` (centres undefined), the melting point was 142 to 143 °C. Then `Cc1ccc(N2C(=O)C(O)=C(C(=O)c3ccc(C(C)C)cc3)C2c2ccc(Cn3cncn3)cc2)nn1` (centres undefined), with 223 °C. In turn, `Nc1cccc2nc3c(nc12)N1CCCCC1CO3` (centres undefined) came in with a melting point of 207 to 209 °C. Then `Cc1ccc2[nH]c(=O)cc(CCCl)c2c1`, with 215 to 216 °C; and `Cn1ccc2ccc(CO)cc21`, with 47 to 49 °C; and `c1cncc(-c2cc(C3CC3)on2)c1`, with 70 to 73 °C.

As for `CN(c1ccncc1[N+](=O)[O-])n1cccc1C=O`, the melting point was in the range of 101 to 107 °C. Under `CC[C@H]1CN(c2c(F)cc3c(=O)c(C(=O)O)cn([C@@H]4C[C@@H]4F)c3c2OC)C[C@H]1NC` stands 143 to 145 °C; under `Nc1ccc2c(c1)C(=O)C2`, 92 to 93 °C; under `COc1ccc(N2CCN(C(=O)Oc3ccc(Oc4ccc(C(F)(F)F)cn4)cc3)CC2)c(OC)c1`, 98 to 99 °C. Under `C#CCN1C(=O)COc2cc(F)c(-c3ccc(C(F)(F)F)n(C)c3=O)cc21` stands 166 to 168 °C. Under `COc1cc(C)cc(-c2nn(CC#N)cc2-c2cc(NC[C@H](C)O)nc(-c3cccnc3)n2)c1` stands 200 °C; under `CN=C1N(c2c(C)cccc2C)CCN1c1c(C)cccc1C`, 180 to 181 °C; under `COc1cc2ncnc(N3CCN(C(=O)Nc4ccc(-n5cccc5)nc4)CC3)c2cc1OC`, 252 to 254 °C. `COc1ccc(Cc2nc3n(c2Cc2ccc(OC)cc2)CCS3=O)cc1` (centres undefined) returned a melting point of 190 to 191 °C. As to `Cc1ccc(NC(=O)c2cccc(N3CCOCC3)c2)cc1NC(=O)c1cccc(OC2CCNCC2)c1`, the melting point lay within 162 to 166 °C. Under `ClCCOc1cccc2c1OCCO2` stands 73 °C. Then `COc1ccc(CCNC(=O)Cc2ccc(-c3ccccc3)cc2)cc1OC`, with 103 to 105 °C; and `CCCCc1nc2cccc(O)c2n1Cc1ccc(-c2ccccc2-c2nnn[nH]2)cc1`, with 186 to 188 °C. On to `CCc1[nH]cc2c1-c1ccc(Cl)cc1C(c1ccccc1Cl)=NC2`, for which the melting point lay within 251 to 253 °C. Under `CCCc1c(C(=O)N(C)Cc2ccc3c(Br)c(O)ccc3c2)cnn1-c1ccccc1` stands 205 to 207 °C. Then `OCCN1CCN(c2cc(Sc3ccc(Cl)cc3)nc(-c3ccccc3)n2)CC1`, with 118 to 120 °C; and `CCCCOc1cc(=O)n(CCCC)c2ccccc12`, with 50 to 52 °C. In turn, `CC(=O)O[C@H]1C[C@@H](n2cnc3c(Cl)ncnc32)[C@H](O)[C@@H]1O` (racemic) yielded a melting point of 103 to 104 °C. Under `CCn1c(C)c(C2(c3c(-c4ccc(OC)cc4)nc4sccn34)OC(=O)c3cccnc32)c2ccccc21` (centres undefined) stands 115 to 118 °C. Molecule `COC(=O)c1ccc2c(c1)CCC(CCN1CCC(c3ccccc3)CC1)C2=O` (centres undefined) yielded a melting point of 110 to 112 °C.

For the molecule `Cc1nc(N)sc1CCC1CCCCC1`, the melting point was in the range of 98 to 100 °C. On to `CSC(=NC#N)NCCSCc1ccc(Nc2ccccc2)nc1`, for which the melting point fell in the range of 180 to 182 °C. As for `CC(C)C1CNCc2cccc3[nH]c(=O)n1c23` (centres undefined), the melting point worked out at 167 °C. Under `Cc1cn(-c2ccc(N3C[C@H](CO)OC3=O)cc2F)cn1` stands 151 to 153 °C.

`CC(C)(C)C(NC(=O)c1cccc(-c2ccccc2)c1)Nc1c(Nc2cccnc2)c(=O)c1=O` (centres undefined) yielded a melting point of 240 to 241 °C. Then `CCOC(=O)c1cnc(Cl)cc1NCc1ccc(OC)c(Cl)c1`, with 116 to 118 °C; and `COc1cc2cccnc2c(N2CCN([C@H]3CC[C@@H](c4cn(C)c5ccc(C#N)cc54)CC3)CC2)n1`, with 230 to 233 °C; and `O=S1(=O)c2ccccc2Nc2c1c(O)c(O)c1ccccc21`, with 330 °C. As to `CCc1cc(C(F)(C(F)(F)F)C(F)(F)F)cc(C)c1NC(=O)c1cccc(N=S=O)c1`, the melting point was in the range of 100 to 108 °C. As to `CC1=C(C#N)S(=O)(=O)c2cc(F)cc(F)c2N1`, the melting point is 289 to 290 °C. In turn, `CSc1cnc(NC(=O)c2ccc(OC(C)=O)cc2)s1` displayed a melting point of 193 to 196 °C. Under `CCC(=C(c1ccc(O)cc1)c1ccc(O)cc1)c1cccc(/C=C/C(=O)O)c1` stands 280 to 281 °C.

With `CCOC(=O)C(=O)Nc1cc(CC)c(C(=O)OCC)s1`, the melting point was in the range of 103 to 105 °C. Under `Cc1nc2cnc3cccnc3c2n1CC(C)C` stands 110 to 111 °C. Under `CC(C)C1C(=O)C(C)(C)C(=O)N1c1ccc(C#N)c(Cl)c1` (centres undefined) stands 116 to 117 °C; under `C[Si](C)(C)NS(=O)(=O)c1ccccc1`, 62 to 63 °C. In the case of `COC(=O)c1cc(N(C)C)cc(N(C)C)c1`, the melting point was in the range of 86 to 88 °C. Under `N#CC1CN1C(=O)NC(=O)c1ccccc1` (centres undefined) stands 144 to 146 °C.

Molecule `Cc1cc(OC=CCC(F)(F)F)nc(Oc2cc(C(F)(F)F)nn2C)c1` came in with a melting point of 56 °C. Then `NC(=O)c1cc(NC(=O)c2ccccc2)ccc1SSc1ccc(NC(=O)c2ccccc2)cc1C(N)=O`, with 273 to 274 °C; and `COc1ccc(OC)c2c1C(=O)c1ccc(C)cc1C2OC` (centres undefined), with 177 to 179 °C. Under `CC(C#CC1CCC(Oc2ccc(F)cc2)C1)N(O)C(N)=O` (centres undefined) stands 95.6 to 96.7 °C; under `CNc1ccc(C(=O)N2CCN(CCc3ccc(SC)cc3)CC2)cc1`, 120 to 121 °C. Under `CCCCc1c(C(=O)c2ccc(OC)cc2)c2cc([N+](=O)[O-])ccc2n1C` stands 168 °C; under `COc1ccc(CC(=O)Nc2cc(Cl)c(Cl)cc2[N+](=O)[O-])cc1`, 124 to 126 °C. Take `CCCOc1ccc(Br)cc1-c1nc2c(C)cccc2c(=O)[nH]1`: the melting point fell in the range of 179 to 180 °C.

`Cn1c(=O)c2c(nc(CCc3cccc(N)c3)n2C)n(C)c1=O`: the melting point fell in the range of 158 to 160 °C.

Molecule `CC(C)(C)OC(=O)C=Cc1ccc2c(c1)OCO2` yielded a melting point of 82 to 83 °C. Then `Cn1c(C(F)(F)F)ccc(-c2cc(S)c(Cl)cc2F)c1=O`, with 141 to 142 °C; and `CCOC(=O)C(=NO)c1cccc(Br)c1`, with 113 to 114 °C; and `Fc1ccc(Sc2c[nH]c3ncccc23)cc1`, with 183 to 184 °C.

As to `CCCNC(=O)Nc1ccc(-c2cn3c(n2)C(OC2CCN(C)CC2)c2ccccc2CC3)cc1` (centres undefined), the melting point is 130 °C. Under `COc1ccc(C(=O)Nc2ccccc2)cc1Nc1ccc(C)cc1` stands 187 to 188 °C. In the case of `O=C(c1ccc([N+](=O)[O-])cc1)N1Cc2ccccc2-c2ccccc21`, the melting point was in the range of 153 to 154 °C.

As for `CCCCc1cccn1NS(=O)(=O)C1CCCC=C1C(=O)OCC` (centres undefined), the melting point was in the range of 49 to 50 °C. Then `Fc1ccccc1COc1nn(Cc2ccccc2F)c2ncccc12`, with 57 to 58 °C; and `Cn1c(CCCOc2ccc(CC3SC(=O)N(C(c4ccccc4)(c4ccccc4)c4ccccc4)C3=O)cc2)nc2cccnc21` (centres undefined), with 76 to 81 °C; and `CCCN1CCN(CCCOc2ccc3nc(C#N)nc(NCC(C)(C)C)c3c2)CC1`, with 102 to 104 °C. Under `O=C(Nc1nc(-c2ccccc2)cs1)C(=O)OC1CCCCC1` stands 160 to 161 °C; under `COc1ccc(CN(C)c2ncnc3c(N4CCOCC4)nc(N4CCC(N(C)C)CC4)nc23)cc1`, 109 to 110 °C. Then `CCCCCCC(C)(C)c1cc(O)c2c(c1)OC(C)(C)[C@@H]1CC=C(NC(C)=O)C[C@@H]21` (relative stereo), with 186 to 188 °C; and `COc1cccc2c1-c1ccc(NS(C)(=O)=O)cc1C(c1cccc(N(C)C(C)=O)c1)O2` (centres undefined), with 165 to 168 °C. `COc1cc(/C=C/C(=O)Oc2ccc(NC(C)=O)cc2)ccc1OC(C)=O`: the melting point was in the range of 246 to 250 °C.

Turning to `Nc1ncc(-c2noc(-c3cnn4c(C(F)(F)F)cc(-c5ccc(F)c(F)c5)nc34)n2)cn1`, the melting point is 268 °C. Regarding `O=C1Nc2ccccc2N(C(=O)CN2CCCCC2CN2CCCC2)c2ccccc21` (centres undefined), the melting point lay in the range of 199 to 201 °C. `CCCC(O)c1ccc(Cl)c2nc3n(c12)CCCN3c1ccc(Cl)cc1Cl` (centres undefined) gave a melting point of 220 to 221 °C. Then `O=[N+]([O-])c1ccc(N2CCC2)nc1`, with 132 to 134 °C; and `Cc1c(CO)nc2n1CCc1ccccc1C2=C1CCN(C)CC1`, with 167 °C. Then `Cc1oc(-c2ccccc2)nc1COc1ccc(CO)cc1`, with 128 to 129 °C; and `Cc1c(C)c2c(c(C)c1NC(=O)CC(C)(C)C)C(c1ccccc1)C(C)(C)O2` (centres undefined), with 214 to 215 °C. Then `O=C1CCCc2ccc([N+](=O)[O-])cc21`, with 104 to 105 °C. As for `CC(C)(C)OC(=O)CCc1cccc(-c2nc(=O)c3ccc(Cl)cc3s2)n1`, the melting point was determined as 168 °C. `N#CC(=O)c1ccccc1Br` displayed a melting point of 64 °C. In turn, `Cc1nc2nc(SCc3ccccc3)nn2c(C)c1C` displayed a melting point of 134 to 135 °C. `NC(=O)CCCN1C(=O)c2ccccc2C1=O`: the melting point fell in the range of 160 to 162 °C. As for `O=C(c1ccccc1)N1CCNc2ncccc21`, the melting point fell in the range of 166 to 168 °C. Under `O=C(O)Cc1cc(=O)n(Cc2ccc([N+](=O)[O-])cc2)c2ccccc12` stands 208 to 210 °C; under `CCOC(=O)c1[nH]c2cc3c(sc4ccccc43)c(C)c2c1C`, 191 to 193 °C; under `O=C(O)COC(=O)C=Cc1ccccc1`, 116 to 121 °C. In the case of `C[C@@H](NC(=O)c1cnn(-c2ccc(Cl)cc2)c1N)[C@](O)(Cn1cncn1)c1ccc(F)cc1F`, the melting point lay within 181 to 182 °C. Under `CCOC(=O)C1=C(C)Nc2nc(N)nc(N)c2C1c1cccc([N+](=O)[O-])c1` (centres undefined) stands 230 °C.
